Laboratory results: patent US7049455B2, “Process for producing shogaols and intermediates for the synthesis thereof” (Toagosei Co., Ltd., priority 2002, dated 2006)
Entries after “also recorded” stand apart in the source; their conditions may differ.

System: mushroom-derived tyrosinase
Test: inhibition of the activity of mushroom-derived tyrosinase, L-dopa as substrate
Format: biochemical
Details: L-dopa as a substrate, compared with arbutin (Tokyo Kasei Kogyo)
Excerpt: A test of [6]-shogaol obtained in Example 5 about the inhibition of the activity of mushroom-derived tyrosinase was done, using L-dopa as a substrate.

CCCCC/C=C/C(=O)CCc1ccc(O)c(OC)c1 [[6]-shogaol]
inhibition of tyrosinase activity: inhibited tyrosinase activity; also recorded: inhibitory activity at the same level as that of arbutin
